Assays:
Bcl-2 phosphorylation = experiment: Bcl-2 phosphorylation, 32P metabolic labeling; format: cell-based; conditions: 0.1 μM
Description: Metabolic labeling, immunoprecipitation, and immunoblot analysis. Cells were labeled with [^32P]orthophosphoric acid and then treated with 0.1 μM CDDO-Me or CDDO, after which Bcl-2 was analyzed by immunoprecipitation, as previously described Samples were electrophoresed in a 12% acrylamide/0.1% SDS gel, transferred to nitrocellulose, and exposed to Hyperfilm (Amersham Pharmacia Biotech, UK) at −80° C. The same blot was used for western blot analysis with anti-Bcl-2 antisera.
The effect of CDDO-Me on Bcl-2 phosphorylation was further investigated by performing metabolic labeling studies with ^32P-orthophosphoric acid. […] To further investigate mechanisms of inhibition of Bcl-2 phosphorylation that could may a role in CDDO-Me-induced cell death, the inventors selected U937 cells that were stably transfected with a serine 70→alanine, Bcl-2 mutant (S70A).

ERK1/2 in U937 cells = experiment: ERK1/2 phosphorylation, Western blot; format: cell-based, human; conditions: 1 μM, 3 hours
Description: Western blot analysis. An equal amount of protein lysate was placed on 12% SDS-PAGE for 2 hours at 100 volts, followed by transfer of the protein to a Nytran membrane (S&S, Heween, N.H.) and immunoblotting. Polyclonal rabbit antibodies to Bcl-2, Bcl-XL, and Bax were kindly provided by Dr. J. C. Reed. Antibodies against PARP was obtained from PharMingen (San Diego, Calif.), DFF-45 from Oncogene (Cambridge, Mass.), XIAP from Transduction Laboratories (Lexington, Ky.), caspase-3 from PharMingen, phospho-specific anti-pERK1/2 antibodies from Calbiochem (San Diego, Calif.). A specific antibody recognizing only the p20-processed caspase-3 band was provided by Idun Pharmaceutical, Inc. (La Jolla, Calif.).
Since PKC-α and the MAP kinases ERK1 (p44) and ERK2 (p42) have been identified as physiologic Bcl-2 kinases, studies were performed to assess their activation status. […] However, both ERK1 and ERK2 were prominently detected in the mitochondrial membranes. […] Treatment of K562 cells with 1 μM of CDDO-Me in vivo abrogated ERK kinase activity similar to specific MEK inhibitor […]. No effect on Akt activity was seen. These findings indicate that CDDO-Me induces apoptosis by inhibition of ERK1/2 and Bcl-2 phosphorylation.

NB4 cells [1] = experiment: Cell surface Fas/CD95 expression by flow cytometry; format: cell-based, human; conditions: 0.5 μM, 48 hours (24.8 in DMSO-treated cells)
Description: Immunophenotyping. The PE-conjugated anti-CD11b, FITC-conjugated anti-CD14 monoclonal antibody (mAb) (Becton Dickinson) and PE-conjugated anti-CD95 mAb (PharMingen) were used at a 1/10 dilution. The percentage of positive cells was calculated by subtracting the percentage of cells with a fluorescence intensity greater than the set marker using the isotype control (background) from the percentage of cells with a fluorescence intensity greater than the same marker using the specific antibody.
(§1) Mechanisms of CDDO-induced apoptosis in leukemia cell lines and in primary AML samples were also determined. The involvement of the death receptor/Fas pathway was studied in NB4 cells. Treatment with 0.5 μM CDDO induced cell surface Fas/CD95 expression at 48 hours (MFI 34.8 vs 24.8 in DMSO-treated cells and 26 in untreated control). At this concentration, 22.3% of cells were annexin V positive compared with 11.4% in DMSO-controls. At 1 μM, 56.3% of cells were apoptotic. Similarly, 1 μM CDDO induced Fas expression in 7/12 AML CD34+ cells (MFI, 22.3±3.5 in DMSO-controls, 40±4.3 in CDDO-treated CD34+ cells, p<0.01).

NB4 cells [2] = experiment: Annexin V staining; format: cell-based, human
Description: Annexin V staining. Cells were washed in phosphate-buffered saline (PBS) and resuspended in 100 μl of binding buffer containing Annexin V (Roche Diagnostic Corporation, Indianapolis, Ind.). Cells were analyzed by flow cytometry after the addition of propidium iodide (PI). Annexin V binds to those cells that express phosphatidylserine on the outer layer of the cell membrane, and PI stains the cellular DNA of those cells with a compromised cell membrane. This allows for live cells (unstained with either fluorochrome) to be discriminated from apoptotic cells (stained only with annexin V) and necrotic cells (stained with both annexin and PI).
as §1

[3] = tested on: Bcl-2 mRNA in HL-60 cells; experiment: Bcl-2 mRNA by quantitative TaqMan PCR; format: cell-based, human; conditions: 72 hours
Description: (§2) The effect of CDDO on the Bcl-2 mRNA expression was analyzed utilizing quantitative TaqMan PCR. In HL-60 cells, Bcl-2 mRNA decreased at 24 hrs and decreased further (>than 10-fold) at 72 hours; in NB4 cells, a small decrease of Bcl-2 mRNA (2-fold) was observed only at 72 hrs (FIG. 9).

Bcl-2 mRNA in NB4 cells = experiment: Bcl-2 mRNA by quantitative TaqMan PCR; format: cell-based, human; conditions: 72 hrs
Description: as §2

U937 cells [4] = experiment: cells; format: cell-based, human
Description: Suspension culture of leukemic cells.
CDDO. The effect of CDDO on the survival of HL-60 and U937 leukemia cell lines is depicted in FIG. 1. A time- and dose-dependent decrease of HL-60 cells: at 48 hours, 10^−8 M, at 72 and 96 hours, 10^−9 M of CDDO reduced cell numbers by 50%. Viability of U937 cells was inhibited at 107 to 1018 at 48 hours. DNA fragmentation was measured to confirm that the cell death induced by CDDO was due to apoptosis on a sub G1 cell population by DNA/RNA flow cytometry (FIG. 2). The percentage of proliferating cells were analyzed by FCM.

U937 cells [5] = experiment: Apoptotic sub-G1 cells; format: cell-based, human; conditions: 1 μM, 48 hrs
Description: Cell kinetic and DNA fragmentation studies. The cell cycle kinetics was determined by staining cells with acridine orange for cellular DNA and RNA content followed by flow cytometeric analysis as described. Samples were measured in a FACScan flow cytometer (Becton Dickinson, San Jose, Calif.) using the 488-nm line of a […] argon laser and filter settings for green (530 nm) (DNA) and red (585 nm) (RNA) fluorescence. Ten thousand events were stored in list mode for analysis. The percentage of cells in the “sub G1 peak” defined the proportion of apoptotic cells in the tested populations. […] Cell-cycle kinetics was analyzed using ModFit software (Verity Software House, Inc., Topsham, Me.).

[6] = tested on: Bcl-2 in CD34+ cells of primary AML; experiment: Bcl-2 expression level in CD34+ cells of primary AML samples; format: cell-based, human

COC(=O)[C@]12CCC(C)(C)C[C@H]1[C@H]1C(=O)C=C3[C@@]4(C)C=C(C#N)C(=O)C(C)(C)[C@@H]4CC[C@@]3(C)[C@]1(C)CC2 [CDDO-Me]
Bcl-2 phosphorylation (Bcl-2 phosphorylation): virtually abrogated | activation of ERK1/2 (ERK1/2 phosphorylation) (ERK1/2 in U937 cells): blocked the activation of ERK1/2

CC1(C)CCC2(C(=O)O)CCC3(C)C(C(=O)C=C4C5(C)C=C(C#N)C(=O)C(C)(C)C5CCC43C)C2C1 (stereo not drawn) [CDDO, 2-cyano-3,12-dioxoolen-1,9-dien-28-oic acid]
cell surface Fas/CD95 expression, MFI (NB4 cells [1]): 34.8 | annexin V positive cells (NB4 cells [2]; 0.5 μM (11.4% in DMSO-controls)): 22.3% | apoptotic cells (NB4 cells [2]; 1 μM): 56.3% | decrease of Bcl-2 mRNA [3]: > 10 fold | decrease of Bcl-2 mRNA (Bcl-2 mRNA in NB4 cells): 2 fold | concentration at which viability of U937 cells was inhibited (U937 cells [4]; 48 hours): 107 to 1018 | viability at 1 µM (U937 cells [4]; Homo sapiens, U-937, 48 h, read-out: cells remaining viable): 44.7% | viability at 2 µM (U937 cells [4]; Homo sapiens, U-937, read-out: viable cells): 30.2% | apoptotic sub-G1 cells (U937 cells [5]): 69.4% | primary AML samples with significantly decreased Bcl-2 expression level in CD34+ cells [6]: 9 of 18

Reference: patent US7795305B2, “CDDO-compounds and combination therapies thereof” (Board of Regents, The University of Texas System, priority 2000, dated 2010)
